Counter-ions that a name gives are not always drawn. Like-named read-outs stand apart in the source and are kept apart here. Marks after values point to notes of the source that are not given here.
Tests used:
[1] = hepatocytes; cited from earlier work
[2] = In vitro biotransformation rate, rainbow trout liver S9 (OECD TG 319); format: in vitro ADME
Experimental: In brief, rainbow trout liver S9 homogenate was preincubated in buffer and cofactors, followed by 120 min of incubation with bisphenol. From each duplicate, 50 μL of subsamples was taken at timepoints 0, 2, 5, 15, 30, 60, 90, and 120 min and mixed with 200 μL of ice-cold methanol. The protocol of the procedure is described further in Section 2.
1042. Biotransformation rate estimation methodology
106Trinova Biochem; Lot: 180216) was pre-incubated at 11°C in K 2HPO4/KH2PO4 buffer
107(pH=7.8; 1 mL final volume) containing alamethicin from Trichoderma viride (25 μg/mL), and
108cofactors NADPH (2 mM), UDPGA (2 mM), GSH (5 mM), and PAPS (0.1 mM). After 10 min
109of preincubation, biotransformation was started by adding 5 µL of bisphenol test compound
110dissolved in methanol (1 µM final concentration). […]

[3] = cited from earlier work
Estrogen receptor (ER) [4] = target: Estrogen receptor (ER); parameters: method as in Tox21; settings: ATG Era Trans up assay; ref Tox21; cited from earlier work
Estrogen receptor (ER) [5] = target: Estrogen receptor (ER); parameters: method as in Tox21; settings: ATG ERE CIS up assay; ref Tox21; cited from earlier work
zebrafish [6] = settings: cited from earlier work
[7] = cited from earlier work; remark: listed apart in the source
zebrafish [8] = settings: female, observed, ref Chen et al. 43, cited from earlier work
UGT1A1 = system: UGT1A1; parameters: method as in Wang et al. 64; settings: single isolated enzyme; ref Wang et al. 64; cited from earlier work
zebrafish [9] = settings: cited from earlier work; remark: listed apart in the source
[10] = cited from earlier work; remark: listed apart in the source
Estrogen receptor (ER) [11] = target: Estrogen receptor (ER); parameters: method as in Kitamura et al. 2005; settings: ERE-luciferase reporter assay, MCF-7 cells; ref Kitamura et al. 2005; cited from earlier work
ER = settings: known from literature, no reference given; cited from earlier work
zebrafish [12] = experiment: PBTK parameter fitting (Nelder–Mead algorithm) to in vivo zebrafish data; parameters: species or system zebrafish (Danio rerio); settings: fitted on egg TBBPA concentrations, 100 nmol/g feed (Nyholm et al.)
Excerpt: Ovaries and eggs were assumed to receive the same blood flow. The equation for the egg compartment was described as follows using the diffusion-limited equation previously described by Thompson and Beard[51] [drawing 4] 4 where dAegg/dt represents the rate of change of bisphenol over time in the egg compartment, Agon and Aegg represent the amount of compound in the gonads and egg, respectively, Vgon and Vegg are the volumes of the gonads and eggs, respectively, and Pgon and Pegg are the partition coefficients of the gonads to blood and egg to gonads.
Parameter fitting was done in R using the modFit function in the FME package with the Nelder–Mead algorithm.[53]
279For fitting, the model was run using the exposure scenarios of each fitting data set.
280parameters were fixed as presented in Tables S10-S14 with exception of the parameter for
281which fitting was performed. The outcome evaluated by fitting algorithm was the concentration
282over time in the same tissue as the experimental data. Outcomes used for fitting to measured
283experimental data were: concentration in brain for brain-blood partition coefficient,
284concentration in liver for liver-blood partition coefficient, concentration in eggs for egg-gonad
285partition coefficient and whole-body metabolite concentration for Ke bile and KBG of metabolites.
286For the liver, brain and egg partitioning, the range was set between 0.01 and 500 and the Nelder-
287Mead algorithm was run with initial estimates at 1, 5, 10, 50 and 500 in order to assure a global
288minimum was found. The fitted values returning the lowest squared sum of residuals were used
The GI lumen to GI tract diffusion rate (K u)

zebrafish [13] = system: zebrafish; parameters: method as in Nyholm et al. 46; settings: female, observed, ref Nyholm et al. 46, cited from earlier work
[14] = from measured S9 clearance, transformed as suggested by Nichols et al.
[15] = in vitro incubation with rainbow trout liver S9, assuming 163 mg S9 protein/g liver
[16] = 20 μg/L, female, liver, observed, ref Shi et al. 47
[17] = 20 μg/L, female, ovaries, observed, ref Shi et al. 47
[18] = 20 μg/L, female, whole body, observed, ref Shi et al. 47
[19] = 20 μg/L, male, liver, observed, ref Shi et al. 47
[20] = 20 μg/L, male, testes, observed, ref Shi et al. 47
[21] = 20 μg/L, male, whole body, observed, ref Shi et al. 47
[22] = measured human values, ref CompTox Dashboard
[23] = cells marked g, ref Staples et al. 1998
[24] = metabolite, Female, whole body, Observed, ref Shi et al. 2016
[25] = metabolite, Male, whole body, Observed, ref Shi et al. 2016
[26] = measured values, ref Grumetto et al 2019
[27] = metabolite, Female, whole body, Observed, ref Lindholst et al. 2003

O=C(c1ccc(O)cc1O)c1ccc(O)cc1O [BP-2, benzophenone 2]
CL (human clearance rate) [1]: 1.41*105 ml/d/g liver
CL (clearance rate) ([2]; 163 mg): 5.79 × 10^4 mL/d/g liver
CLin vivo,int (in vivo intrinsic clearance) ([2]; s9): 869 L/d/Kg fish
Funbound (plasma fraction unbound) ([3]; human, plasma): 0.035
EC50 (Estrogen receptor (ER) [4]): 620 nM
EC50 (Estrogen receptor (ER) [5]): 620 nM

CC(C)(c1ccc(O)cc1)c1ccc(OS(=O)(=O)O)cc1 [BPA sulfate]
concentrations relative to those of the glucuronide (zebrafish [6]; zebrafish, in vivo): 1000 times lower

CC(C)(c1ccc(O)cc1)c1ccc(O)cc1 [BPA, Bisphenol A]
CL (human clearance rate) [1]: 1.46*105 ml/d/g liver
CLin vivo,int (in vivo intrinsic clearance) [2, 14]: 36.7 L/d/Kg fish
Funbound (plasma fraction unbound) ([3]; plasma): 0.035
log Kow ([7]; ref Staples et al. 67): 3.42 ^f
BCF (zebrafish [8]; 1.94 μg/L, liver): 201
BCF (zebrafish [8]; 1.94 μg/L, ovaries): 10.3
BCF (zebrafish [8]; 5.72 μg/L, liver): 199
BCF (zebrafish [8]; 5.72 μg/L, ovaries): 21.0
BCF (zebrafish [8]; 5.72 μg/L, whole body): 19.2
UGT1A1 activity (UGT1A1): 5.19 pmol/min/mg protein
BCF (zebrafish [6]; 97.5 μg/L, gender not specified, whole body, observed, ref Lindholst et al. 39): 6.46
t1/2 (zebrafish [6]; zebrafish, in vivo): 107 h

Oc1ccc(C(c2ccc(O)cc2)(C(F)(F)F)C(F)(F)F)cc1 [BPAF, bisphenol AF]
CL ([2]; both series combined): 0.78 mL/(h x mg)
CLin vivo,int (in vivo intrinsic clearance) [2, 14]: 45.5 L/d/Kg fish
CL (clearance rate) [2, 15]: 3.04 × 10^3 mL/d/g liver
CL ([2]; series 1 (s1)): 0.75 mL/(h x mg)
k (first-order disappearance rate constant) ([2]; series 1 (s1)): 0.73 h⁻¹
CL ([2]; series 2 (s2)): 0.80 mL/(h x mg)
k (first-order disappearance rate constant) ([2]; series 2 (s2)): 0.78 h⁻¹
AUC (zebrafish [9]; [16]): 1.38 µg/g/day
BCF (zebrafish [9]; [16]): 11.9
Cmax (zebrafish [9]; [16]): 0.24 µg/g
t1/2 (zebrafish [9]; [16]): 204 h
AUC (zebrafish [9]; [17]): 1.50 µg/g/day
BCF (zebrafish [9]; [17]): 10.9
Cmax (zebrafish [9]; [17]): 0.22 µg/g
t1/2 (zebrafish [9]; [17]): 190 h
AUC (zebrafish [9]; [18]): 0.8 µg/g/day
BCF (zebrafish [9]; [18]): 7.04
Cmax (zebrafish [9]; [18]): 0.14 µg/g
t1/2 (zebrafish [9]; [18]): 120 h
AUC (zebrafish [9]; [19]): 4.93 µg/g/day
BCF (zebrafish [9]; [19]): 40.5
Cmax (zebrafish [9]; [19]): 0.81 µg/g
t1/2 (zebrafish [9]; [19]): 610 h
AUC (zebrafish [9]; [20]): 3.23 µg/g/day
BCF (zebrafish [9]; [20]): 27.5
Cmax (zebrafish [9]; [20]): 0.55 µg/g
t1/2 (zebrafish [9]; [20]): 20.4 h
AUC (zebrafish [9]; [21]): 1.25 µg/g/day
BCF (zebrafish [9]; [21]): 9.80
Cmax (zebrafish [9]; [21]): 0.20 µg/g
t1/2 (zebrafish [9]; [21]): 85.9 h
Funbound (plasma fraction unbound) [3, 22]: 0.010

O=C(O)[C@H]1O[C@@H](Oc2ccc(C(c3ccc(O)cc3)(C(F)(F)F)C(F)(F)F)cc2)[C@H](O)[C@@H](O)[C@@H]1O [BPAF-GA, BPAF glucuronic acid]
Ratio blood-plasma [10, 23]: 1.00
AUC (zebrafish [9]; [24]): 6.54 µg/g/day
Cmax (zebrafish [9]; [24]): 1.09 µg/g
AUC (zebrafish [9]; [25]): 3.54 µg/g/day
Cmax (zebrafish [9]; [25]): 0.60 µg/g

CC(c1ccccc1)(c1ccc(O)cc1)c1ccc(O)cc1 [BPAP, bisphenol AP]
CL ([2]; both series combined): 1.80 mL/(h x mg)
CLin vivo,int (in vivo intrinsic clearance) [2, 14]: 106 L/d/Kg fish
CL (clearance rate) [2, 15]: 7.06 × 10^3 mL/d/g liver
CL ([2]; series 1 (s1)): 1.79 mL/(h x mg)
k (first-order disappearance rate constant) ([2]; series 1 (s1)): 1.73 h⁻¹
CL ([2]; series 2 (s2)): 1.82 mL/(h x mg)
k (first-order disappearance rate constant) ([2]; series 2 (s2)): 1.74 h⁻¹
EC50 (Estrogen receptor (ER) [4]): 120 nM
EC50 (Estrogen receptor (ER) [5]): 290 nM

CCC(C)(c1ccc(O)cc1)c1ccc(O)cc1 [BPB, bisphenol B]
Ratio blood-plasma [10, 26]: 1.04
CL ([2]; both series combined): 0.96 mL/(h x mg)
CLin vivo,int (in vivo intrinsic clearance) [2, 14]: 56.4 L/d/Kg fish
CL (clearance rate) [2, 15]: 3.76 × 10^3 mL/d/g liver
CL ([2]; series 1 (s1)): 0.92 mL/(h x mg)
k (first-order disappearance rate constant) ([2]; series 1 (s1)): 0.95 h⁻¹
CL ([2]; series 2 (s2)): 1.00 mL/(h x mg)
k (first-order disappearance rate constant) ([2]; series 2 (s2)): 0.99 h⁻¹
Funbound (plasma fraction unbound) [3, 22]: 0.018
EC50 (Estrogen receptor (ER) [4]): 130 nM
EC50 (Estrogen receptor (ER) [5]): 170 nM
EC50 (Estrogen receptor (ER) [11]): 70 nM

Cc1cc(C(C)(C)c2ccc(O)c(C)c2)ccc1O [BPC, bisphenol C]
CL ([2]; both series combined): 1.03 mL/(h x mg)
CLin vivo,int (in vivo intrinsic clearance) [2, 14]: 60.6 L/d/Kg fish
CL (clearance rate) [2, 15]: 4.04 × 10^3 mL/d/g liver
CL ([2]; series 1 (s1)): 1.01 mL/(h x mg)
k (first-order disappearance rate constant) ([2]; series 1 (s1)): 1.03 h⁻¹
CL ([2]; series 2 (s2)): 1.05 mL/(h x mg)
k (first-order disappearance rate constant) ([2]; series 2 (s2)): 1.05 h⁻¹

Oc1ccc(Cc2ccc(O)cc2)cc1 [BPF, bisphenol F]
Ratio blood-plasma [10, 26]: 1.41
CL ([2]; both series combined): 0.31 mL/(h x mg)
CLin vivo,int (in vivo intrinsic clearance) [2, 14]: 18.0 L/d/Kg fish
CL (clearance rate) [2, 15]: 1.20 × 10^3 mL/d/g liver
CL ([2]; series 1 (s1)): 0.31 mL/(h x mg)
k (first-order disappearance rate constant) ([2]; series 1 (s1)): 0.31 h⁻¹
CL ([2]; series 2 (s2)): 0.30 mL/(h x mg)
k (first-order disappearance rate constant) ([2]; series 2 (s2)): 0.31 h⁻¹
EC50 (Estrogen receptor (ER) [4]): 950 nM
EC50 (Estrogen receptor (ER) [5]): 780 nM
log Kow ([7]; measured value, ref CompTox Dashboard): 2.91 ^h
EC50 (Estrogen receptor (ER) [11]): 1000 nM

O=S(=O)(c1ccc(O)cc1)c1ccc(O)cc1 [BPS, bisphenol S]
k (first-order disappearance rate constant) ([2]; series 1 (s1)): 0.41 h⁻¹
k (first-order disappearance rate constant) ([2]; series 2 (s2)): 0.48 h⁻¹
EC50 (Estrogen receptor (ER) [4]): 800 nM
EC50 (Estrogen receptor (ER) [5]): 1420 nM
EC50 (Estrogen receptor (ER) [11]): 1100 nM

CC(C)(C)c1cc(Cc2cc(C(C)(C)C)c(O)c(C(C)(C)C)c2)cc(C(C)(C)C)c1O [Bimox M]
CL (in vitro rainbow trout clearance rate) [2]: 0 ml/d/g liver
metabolic degradation [2]: no metabolic degradation
CL (clearance rate) ([2]; 163 mg): 0 mL/d/g liver
CLin vivo,int (in vivo intrinsic clearance) ([2]; s9): 0 L/d/Kg fish
ER activity (ER): inactive on the ER

CC(C)(c1cc(Br)c(O)c(Br)c1)c1cc(Br)c(O)c(Br)c1 [TBBPA, tetrabromobisphenol A]
parent compound metabolized when levels stopped decreasing ([2]; after 15 min of incubation, both repetitions): ~70%
CL ([2]; both series combined): 4.18 mL/(h x mg)
CLin vivo,int (in vivo intrinsic clearance) [2, 14]: 245 L/d/Kg fish
CL (clearance rate) [2, 15]: 1.63 × 10^4 mL/d/g liver
CL ([2]; series 1 (s1)): 3.90 mL/(h x mg)
k (first-order disappearance rate constant) ([2]; series 1 (s1)): 3.95 h⁻¹
CL ([2]; series 2 (s2)): 4.45 mL/(h x mg)
k (first-order disappearance rate constant) ([2]; series 2 (s2)): 4.38 h⁻¹
Ku (diffusion coefficient from GI lumen into GI tract) (zebrafish [12]): 8.40
Pegg (egg-gonad partition coefficient) (zebrafish [12]; used for all bisphenols): 1.58
Funbound (plasma fraction unbound) [3, 22]: 0.001
log Kow ([7]; measured value, ref Kuramochi et al. 68): 6.53 ^i
AUC (zebrafish [13]; 10 nmol/g feed, egg): 0.017 µg/g/day
Cmax (zebrafish [13]; 10 nmol/g feed, egg): 0.001 µg/g
AUC (zebrafish [13]; 10 nmol/g feed, whole body): 0.291 µg/g/day
Cmax (zebrafish [13]; 10 nmol/g feed, whole body): 0.015 µg/g
AUC (zebrafish [13]; 100 nmol/g feed, egg): 0.118 µg/g/day
Cmax (zebrafish [13]; 100 nmol/g feed, egg): 0.004 µg/g

BPA glucuronic acid [BPA-GA]
Ratio blood-plasma [10, 23]: 1.00
AUC (zebrafish [6]; [27]): 109 µg/g/day
Cmax (zebrafish [6]; [27]): 16.2 µg/g
t1/2 (zebrafish [6]; [27]): 196 h

Reference: PMC9301920, “Physiologically Based Toxicokinetic Modeling of Bisphenols in Zebrafish (Danio rerio) Accounting for Variations in Metabolic Rates, Brain Distribution, and Liver Accumulation” (Environmental Science & Technology, 2022)
